Laboratory results as given in the kinase profiling compilation of Christmann-Franck et al. (2016).

Assays:
Assay in all cases: KINOMEscan competition binding
Conditions in all cases: compound 10.0 µM
ACVR1 (human) = ACVR1 (human) (UniProt Q04771)
AKT3 (human) = AKT3 (human) (UniProt Q9Y243)
CAMKK2 (human) = CAMKK2 (human) (UniProt Q96RR4)
CDC42BPG (human) = CDC42BPG (human) (UniProt Q6DT37)
CDK11B (human) = CDK11B (human) (UniProt P21127)
CHUK (human) = CHUK (human) (UniProt O15111)
CSK (human) = CSK (human) (UniProt P41240)
CSNK1G3 (human) = CSNK1G3 (human) (UniProt Q9Y6M4)
EGFR (human) = EGFR (human) (UniProt P00533)
[1] = tested on: EGFR (human), P00533 [752-759 del]
EPHA7 (human) = EPHA7 (human) (UniProt Q15375)
ICK (human) = ICK (human) (UniProt Q9UPZ9)
IRAK1 (human) = IRAK1 (human) (UniProt P51617)
LYN (human) = LYN (human) (UniProt P07948)
MET (human) = MET (human) (UniProt P08581)
NLK (human) = NLK (human) (UniProt Q9UBE8)
PAK1 (human) = PAK1 (human) (UniProt Q13153)
PAK3 (human) = PAK3 (human) (UniProt O75914)
PAK7 (human) = PAK7 (human) (UniProt Q9P286)
PHKG2 (human) = PHKG2 (human) (UniProt P15735)
PIP4K2B (human) = PIP4K2B (human) (UniProt P78356)
PLK4 (human) = PLK4 (human) (UniProt O00444)
PRKACB (human) = PRKACB (human) (UniProt P22694)
PRKCH (human) = PRKCH (human) (UniProt P24723)
RIOK2 (human) = RIOK2 (human) (UniProt Q9BVS4)
RIPK2 (human) = RIPK2 (human) (UniProt O43353)
ROS1 (human) = ROS1 (human) (UniProt P08922)
RPS6KA2 KD2 (human) = RPS6KA2 KD2 (human) (UniProt Q15349)
RPS6KA3 KD1 (human) = RPS6KA3 KD1 (human) (UniProt P51812)
RPS6KA4 KD1 (human) = RPS6KA4 KD1 (human) (UniProt O75676)
RPS6KA5 KD1 (human) = RPS6KA5 KD1 (human) (UniProt O75582)
STK11 (human) = STK11 (human) (UniProt Q15831)
TBK1 (human) = TBK1 (human) (UniProt Q9UHD2)
TNIK (human) = TNIK (human) (UniProt Q9UKE5)
[2] = target: TYK2 JH1 catalytic (human) (UniProt P29597)
ULK3 (human) = ULK3 (human) (UniProt Q6PHR2)
WEE2 (human) = WEE2 (human) (UniProt P0C1S8)
CDK16 (human) = CDK16 (human) (UniProt Q00536)
MAP2K5 (human) = MAP2K5 (human) (UniProt Q13163)
MTOR (human) = MTOR (human) (UniProt P42345)

Sequence of ULK3 (human) (Q6PHR2 whole entry, looked up): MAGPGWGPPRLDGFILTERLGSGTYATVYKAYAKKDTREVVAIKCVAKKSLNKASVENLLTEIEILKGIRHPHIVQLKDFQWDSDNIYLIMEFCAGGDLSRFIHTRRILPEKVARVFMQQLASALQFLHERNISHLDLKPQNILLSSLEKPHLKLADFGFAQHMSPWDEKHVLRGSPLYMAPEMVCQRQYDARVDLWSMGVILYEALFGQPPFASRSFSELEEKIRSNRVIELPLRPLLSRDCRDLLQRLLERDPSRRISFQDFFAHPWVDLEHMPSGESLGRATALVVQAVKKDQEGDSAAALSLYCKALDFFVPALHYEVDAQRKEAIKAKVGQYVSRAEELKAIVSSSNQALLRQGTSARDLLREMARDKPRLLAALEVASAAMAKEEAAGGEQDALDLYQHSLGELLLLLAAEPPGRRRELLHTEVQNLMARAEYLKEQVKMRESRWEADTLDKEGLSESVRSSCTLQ
Sequence of CAMKK2 (human) (Q96RR4 whole entry, looked up): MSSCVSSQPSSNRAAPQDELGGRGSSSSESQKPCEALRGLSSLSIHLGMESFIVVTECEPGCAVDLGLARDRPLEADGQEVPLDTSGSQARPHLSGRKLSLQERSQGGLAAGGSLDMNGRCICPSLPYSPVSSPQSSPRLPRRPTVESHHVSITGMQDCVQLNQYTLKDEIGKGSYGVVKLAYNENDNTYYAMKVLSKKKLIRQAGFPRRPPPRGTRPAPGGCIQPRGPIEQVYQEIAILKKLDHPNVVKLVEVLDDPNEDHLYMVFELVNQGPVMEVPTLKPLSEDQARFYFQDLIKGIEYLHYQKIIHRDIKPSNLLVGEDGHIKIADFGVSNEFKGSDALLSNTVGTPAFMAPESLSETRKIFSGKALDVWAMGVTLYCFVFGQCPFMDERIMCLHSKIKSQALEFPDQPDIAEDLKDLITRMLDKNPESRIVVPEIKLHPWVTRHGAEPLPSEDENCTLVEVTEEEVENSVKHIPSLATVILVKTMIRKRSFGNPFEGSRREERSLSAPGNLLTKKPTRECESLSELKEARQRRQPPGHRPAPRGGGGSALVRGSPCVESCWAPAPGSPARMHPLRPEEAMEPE
Sequence of PLK4 (human) (O00444 whole entry, looked up): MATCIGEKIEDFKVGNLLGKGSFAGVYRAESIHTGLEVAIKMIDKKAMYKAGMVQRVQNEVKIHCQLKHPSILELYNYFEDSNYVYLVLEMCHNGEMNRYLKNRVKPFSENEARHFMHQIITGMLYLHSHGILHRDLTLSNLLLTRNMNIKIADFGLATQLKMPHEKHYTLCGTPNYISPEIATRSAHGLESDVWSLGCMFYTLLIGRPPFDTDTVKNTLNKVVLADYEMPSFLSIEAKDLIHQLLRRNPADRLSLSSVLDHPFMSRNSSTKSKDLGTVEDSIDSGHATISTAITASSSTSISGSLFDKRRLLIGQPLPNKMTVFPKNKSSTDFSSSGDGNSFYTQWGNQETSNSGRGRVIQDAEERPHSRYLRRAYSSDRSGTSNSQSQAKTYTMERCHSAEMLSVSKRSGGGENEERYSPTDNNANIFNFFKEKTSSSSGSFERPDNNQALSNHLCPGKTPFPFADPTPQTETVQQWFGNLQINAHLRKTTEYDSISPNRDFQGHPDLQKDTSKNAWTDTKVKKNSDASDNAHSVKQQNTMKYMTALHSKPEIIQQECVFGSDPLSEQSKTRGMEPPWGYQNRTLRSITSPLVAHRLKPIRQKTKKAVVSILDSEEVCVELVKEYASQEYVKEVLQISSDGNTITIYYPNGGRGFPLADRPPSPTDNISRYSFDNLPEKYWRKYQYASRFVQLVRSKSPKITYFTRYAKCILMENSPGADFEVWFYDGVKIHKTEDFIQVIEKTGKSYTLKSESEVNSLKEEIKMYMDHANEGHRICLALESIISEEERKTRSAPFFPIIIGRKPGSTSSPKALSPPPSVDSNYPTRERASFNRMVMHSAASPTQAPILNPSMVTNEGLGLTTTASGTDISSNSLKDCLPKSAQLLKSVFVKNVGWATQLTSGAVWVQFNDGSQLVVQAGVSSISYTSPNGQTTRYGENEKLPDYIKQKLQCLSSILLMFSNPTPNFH
Sequence of TBK1 (human) (Q9UHD2 whole entry, looked up): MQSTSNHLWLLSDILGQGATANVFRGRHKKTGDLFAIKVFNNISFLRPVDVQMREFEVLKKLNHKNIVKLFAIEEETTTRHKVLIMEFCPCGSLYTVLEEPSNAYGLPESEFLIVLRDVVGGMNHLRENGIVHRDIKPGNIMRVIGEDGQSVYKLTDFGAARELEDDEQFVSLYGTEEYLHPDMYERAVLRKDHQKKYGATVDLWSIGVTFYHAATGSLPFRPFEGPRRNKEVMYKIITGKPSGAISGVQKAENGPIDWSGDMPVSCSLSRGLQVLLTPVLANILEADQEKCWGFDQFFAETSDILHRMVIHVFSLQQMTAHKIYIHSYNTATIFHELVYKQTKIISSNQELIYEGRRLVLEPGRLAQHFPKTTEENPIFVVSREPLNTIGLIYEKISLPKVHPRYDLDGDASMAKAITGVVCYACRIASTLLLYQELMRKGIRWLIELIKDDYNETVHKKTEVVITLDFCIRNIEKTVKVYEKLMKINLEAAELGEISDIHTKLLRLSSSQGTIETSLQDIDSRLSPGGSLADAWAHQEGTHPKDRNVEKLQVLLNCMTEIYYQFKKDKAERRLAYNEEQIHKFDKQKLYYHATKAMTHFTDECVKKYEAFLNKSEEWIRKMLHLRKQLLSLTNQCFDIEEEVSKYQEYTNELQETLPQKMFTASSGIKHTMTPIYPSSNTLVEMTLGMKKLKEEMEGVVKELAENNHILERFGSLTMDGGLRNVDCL
Sequence of CDC42BPG (human) (Q6DT37 whole entry, looked up): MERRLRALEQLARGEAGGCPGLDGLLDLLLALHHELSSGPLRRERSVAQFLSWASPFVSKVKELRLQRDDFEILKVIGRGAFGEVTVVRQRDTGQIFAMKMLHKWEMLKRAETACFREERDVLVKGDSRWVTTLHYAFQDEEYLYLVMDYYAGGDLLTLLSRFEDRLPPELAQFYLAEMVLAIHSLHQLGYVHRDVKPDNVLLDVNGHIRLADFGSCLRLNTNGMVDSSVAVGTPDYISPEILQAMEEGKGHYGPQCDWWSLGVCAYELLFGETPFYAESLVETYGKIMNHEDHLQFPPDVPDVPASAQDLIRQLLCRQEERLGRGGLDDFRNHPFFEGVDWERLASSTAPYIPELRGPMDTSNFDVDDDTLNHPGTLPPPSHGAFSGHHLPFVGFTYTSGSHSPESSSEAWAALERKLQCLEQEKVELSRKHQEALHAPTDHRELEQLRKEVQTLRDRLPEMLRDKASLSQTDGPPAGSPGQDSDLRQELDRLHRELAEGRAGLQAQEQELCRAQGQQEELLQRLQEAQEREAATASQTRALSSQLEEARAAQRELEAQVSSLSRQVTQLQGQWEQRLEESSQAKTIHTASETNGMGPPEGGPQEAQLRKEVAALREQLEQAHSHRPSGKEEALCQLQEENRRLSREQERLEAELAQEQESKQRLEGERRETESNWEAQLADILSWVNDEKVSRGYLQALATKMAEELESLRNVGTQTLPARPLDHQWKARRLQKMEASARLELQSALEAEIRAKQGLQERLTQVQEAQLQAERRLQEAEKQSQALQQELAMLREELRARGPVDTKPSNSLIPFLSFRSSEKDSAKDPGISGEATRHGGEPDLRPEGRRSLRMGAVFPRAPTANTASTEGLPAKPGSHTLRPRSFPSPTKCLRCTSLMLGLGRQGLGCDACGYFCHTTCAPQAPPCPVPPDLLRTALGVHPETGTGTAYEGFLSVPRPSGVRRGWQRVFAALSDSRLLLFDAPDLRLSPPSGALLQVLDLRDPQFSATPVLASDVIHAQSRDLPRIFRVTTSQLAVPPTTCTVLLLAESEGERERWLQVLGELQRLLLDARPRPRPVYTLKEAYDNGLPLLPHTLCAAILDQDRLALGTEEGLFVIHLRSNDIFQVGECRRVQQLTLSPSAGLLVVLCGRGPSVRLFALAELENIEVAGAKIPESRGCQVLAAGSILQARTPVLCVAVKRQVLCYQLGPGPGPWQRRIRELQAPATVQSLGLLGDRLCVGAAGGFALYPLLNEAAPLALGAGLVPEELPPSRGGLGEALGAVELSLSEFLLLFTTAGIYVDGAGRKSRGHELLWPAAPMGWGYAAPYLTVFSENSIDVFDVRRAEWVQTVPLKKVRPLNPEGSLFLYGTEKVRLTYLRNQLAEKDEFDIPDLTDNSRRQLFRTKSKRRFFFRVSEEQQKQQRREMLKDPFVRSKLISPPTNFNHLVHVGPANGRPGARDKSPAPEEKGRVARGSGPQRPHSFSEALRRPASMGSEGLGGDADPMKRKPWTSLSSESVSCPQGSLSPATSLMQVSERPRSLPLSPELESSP
Sequence of AKT3 (human) (Q9Y243 whole entry, looked up): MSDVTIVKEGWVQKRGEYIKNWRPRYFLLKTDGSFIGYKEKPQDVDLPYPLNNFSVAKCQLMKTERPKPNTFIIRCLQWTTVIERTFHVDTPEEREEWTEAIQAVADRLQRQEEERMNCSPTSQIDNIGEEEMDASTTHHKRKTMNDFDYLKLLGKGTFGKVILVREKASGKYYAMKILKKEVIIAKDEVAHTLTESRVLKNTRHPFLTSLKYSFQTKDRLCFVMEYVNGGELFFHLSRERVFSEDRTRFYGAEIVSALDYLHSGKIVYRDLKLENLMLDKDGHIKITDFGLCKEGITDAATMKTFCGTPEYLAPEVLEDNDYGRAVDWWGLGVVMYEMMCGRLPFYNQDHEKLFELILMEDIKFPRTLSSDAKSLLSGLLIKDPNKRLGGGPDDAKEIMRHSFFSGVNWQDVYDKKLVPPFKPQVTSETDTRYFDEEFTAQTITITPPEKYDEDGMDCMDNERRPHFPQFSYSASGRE

Row | kinase still bound, per cent of control (ACVR1 (human)) [%] | kinase still bound, per cent of control (AKT3 (human)) [%] | kinase still bound, per cent of control (CDC42BPG (human)) [%] | kinase still bound, per cent of control (CDK11B (human)) [%] | kinase still bound, per cent of control (CHUK (human)) [%] | kinase still bound, per cent of control (CSNK1G3 (human)) [%] | kinase still bound, per cent of control (EPHA7 (human)) [%] | kinase still bound, per cent of control (IRAK1 (human)) [%] | kinase still bound, per cent of control (LYN (human)) [%] | kinase still bound, per cent of control (NLK (human)) [%] | kinase still bound, per cent of control (PAK1 (human)) [%] | kinase still bound, per cent of control (PAK3 (human)) [%] | kinase still bound, per cent of control (PAK7 (human)) [%] | kinase still bound, per cent of control (PHKG2 (human)) [%] | kinase still bound, per cent of control (PIP4K2B (human)) [%] | kinase still bound, per cent of control (PLK4 (human)) [%] | kinase still bound, per cent of control (PRKACB (human)) [%] | kinase still bound, per cent of control (PRKCH (human)) [%] | kinase still bound, per cent of control (RIOK2 (human)) [%] | kinase still bound, per cent of control (RIPK2 (human)) [%] | SMILES | further results
1 | 100 | 100 | 100 | 100 | 100 | 100 | 100 | 100 | 100 | 100 | 100 | 100 | 100 | 100 | 100 | 100 | 100 | 100 | 100 | 100 | CS(=O)(=O)N1CCN(Cc2cc3nc(-c4cccc5[nH]ncc45)nc(N4CCOCC4)c3s2)CC1 | kinase still bound, per cent of control (CAMKK2 (human)): 100%; kinase still bound, per cent of control (CSK (human)): 100%; kinase still bound, per cent of control (EGFR (human)): 100%; kinase still bound, per cent of control [1]: 100%; kinase still bound, per cent of control (ICK (human)): 100%; kinase still bound, per cent of control (MET (human)): 100%; kinase still bound, per cent of control (ROS1 (human)): 100%; kinase still bound, per cent of control (RPS6KA2 KD2 (human)): 100%; kinase still bound, per cent of control (RPS6KA3 KD1 (human)): 100%; kinase still bound, per cent of control (RPS6KA4 KD1 (human)): 100%; kinase still bound, per cent of control (RPS6KA5 KD1 (human)): 100%; kinase still bound, per cent of control (STK11 (human)): 100%; kinase still bound, per cent of control (TBK1 (human)): 100%; kinase still bound, per cent of control (TNIK (human)): 100%; kinase still bound, per cent of control [2]: 100%; kinase still bound, per cent of control (ULK3 (human)): 100%; kinase still bound, per cent of control (WEE2 (human)): 100%
2 | 100 | 100 | 100 | 100 | 100 | 100 | 100 | 100 | 34 | 100 | 100 | 100 | 100 | 100 | 100 | 100 | 100 | 100 | 100 | 100 | CCN(CC)CCCCNc1ncc2c(n1)N(C)C(=O)N(c1c(Cl)c(OC)cc(OC)c1Cl)C2 | kinase still bound, per cent of control (CAMKK2 (human)): 100%; kinase still bound, per cent of control (CDK16 (human)): 100%; kinase still bound, per cent of control (CSK (human)): 100%; kinase still bound, per cent of control (EGFR (human)): 100%; kinase still bound, per cent of control [1]: 100%; kinase still bound, per cent of control (ICK (human)): 100%; kinase still bound, per cent of control (MET (human)): 100%; kinase still bound, per cent of control (ROS1 (human)): 100%; kinase still bound, per cent of control (RPS6KA2 KD2 (human)): 100%; kinase still bound, per cent of control (RPS6KA3 KD1 (human)): 100%; kinase still bound, per cent of control (RPS6KA4 KD1 (human)): 100%; kinase still bound, per cent of control (RPS6KA5 KD1 (human)): 100%; kinase still bound, per cent of control (STK11 (human)): 100%; kinase still bound, per cent of control (TBK1 (human)): 100%; kinase still bound, per cent of control (TNIK (human)): 100%; kinase still bound, per cent of control [2]: 100%; kinase still bound, per cent of control (ULK3 (human)): 100%; kinase still bound, per cent of control (WEE2 (human)): 100%
3 | 100 | 100 | 100 | 100 | 100 | 100 | 100 | 100 | 100 | 100 | 100 | 100 | 100 | 29 | 100 | 6.8 | 100 | 100 | 100 | 100 | COc1cc(N2CCN(C)CC2)ccc1Nc1ncc2c(n1)N(C)c1ccccc1C(=O)N2C | kinase still bound, per cent of control (CAMKK2 (human)): 15%; kinase still bound, per cent of control (CDK16 (human)): 100%; kinase still bound, per cent of control (CSK (human)): 100%; kinase still bound, per cent of control (EGFR (human)): 100%; kinase still bound, per cent of control [1]: 100%; kinase still bound, per cent of control (ICK (human)): 100%; kinase still bound, per cent of control (MET (human)): 100%; kinase still bound, per cent of control (ROS1 (human)): 7.6%; kinase still bound, per cent of control (RPS6KA2 KD2 (human)): 15%; kinase still bound, per cent of control (RPS6KA3 KD1 (human)): 100%; kinase still bound, per cent of control (RPS6KA4 KD1 (human)): 100%; kinase still bound, per cent of control (RPS6KA5 KD1 (human)): 100%; kinase still bound, per cent of control (STK11 (human)): 100%; kinase still bound, per cent of control (TBK1 (human)): 100%; kinase still bound, per cent of control (TNIK (human)): 100%; kinase still bound, per cent of control [2]: 100%; kinase still bound, per cent of control (ULK3 (human)): 100%; kinase still bound, per cent of control (WEE2 (human)): 100%

Row | SMILES | kinase still bound, per cent of control (ACVR1 (human)) [%] | kinase still bound, per cent of control (AKT3 (human)) [%] | kinase still bound, per cent of control (CDC42BPG (human)) [%] | kinase still bound, per cent of control (CDK11B (human)) [%] | kinase still bound, per cent of control (CHUK (human)) [%] | kinase still bound, per cent of control (CSNK1G3 (human)) [%] | kinase still bound, per cent of control (EPHA7 (human)) [%] | kinase still bound, per cent of control (IRAK1 (human)) [%] | kinase still bound, per cent of control (LYN (human)) [%] | kinase still bound, per cent of control (NLK (human)) [%] | kinase still bound, per cent of control (PAK1 (human)) [%] | kinase still bound, per cent of control (PAK3 (human)) [%] | kinase still bound, per cent of control (PAK7 (human)) [%] | kinase still bound, per cent of control (PHKG2 (human)) [%] | kinase still bound, per cent of control (PIP4K2B (human)) [%] | kinase still bound, per cent of control (PLK4 (human)) [%] | kinase still bound, per cent of control (PRKACB (human)) [%] | kinase still bound, per cent of control (PRKCH (human)) [%] | kinase still bound, per cent of control (RIOK2 (human)) [%] | kinase still bound, per cent of control (RIPK2 (human)) [%] | further results
4 | C[C@@H](Oc1cc(-c2cnn(C3CCNCC3)c2)cnc1N)c1c(Cl)ccc(F)c1Cl | 0.6 | 100 | 48 | 0.1 | 100 | 100 | 0.3 | 0 | 13 | 93 | 95 | 5.8 | 49 | 32 | 3.8 | 0.1 | 100 | 100 | 56 | 11 | kinase still bound, per cent of control (CDK16 (human)): 96%; kinase still bound, per cent of control (MAP2K5 (human)): 54%; kinase still bound, per cent of control (MTOR (human)): 100%; kinase still bound, per cent of control (ROS1 (human)): 1.1%; kinase still bound, per cent of control (RPS6KA2 KD2 (human)): 28%; kinase still bound, per cent of control (RPS6KA3 KD1 (human)): 47%; kinase still bound, per cent of control (RPS6KA4 KD1 (human)): 100%; kinase still bound, per cent of control (RPS6KA5 KD1 (human)): 100%; kinase still bound, per cent of control (STK11 (human)): 57%; kinase still bound, per cent of control (TBK1 (human)): 8.7%; kinase still bound, per cent of control (TNIK (human)): 51%; kinase still bound, per cent of control [2]: 14%; kinase still bound, per cent of control (ULK3 (human)): 8.8%; kinase still bound, per cent of control (WEE2 (human)): 100%
